Legend:
E. coli = assay: main culture of transformed E. coli in TY medium containing selenocystine; format: cell-based; settings: TY++ line: 0.1 mM selenocystine present during the initial stage of culture, 25° C.
Method: In a 19 ml test tube, each of the bacterial strains shown in Table 13 was inoculated into 2.5 ml of a TY medium. The inoculated medium was then seed-cultured at 37° C. for 16 hours while agitated at 180 rpm. In a 19 ml test tube, 20 μl of the seed culture was inoculated into 2.5 ml of a TY medium containing ampicillin and 0.5 mM IPTG. The inoculated medium was then main-cultured at 25° C. for 20.5 hours while agitated at 180 rpm. Three different lines of TY medium were prepared for the main culture: a TY medium containing 0.1 mM selenocystine (TY++), a TY medium containing 0.01 mM selenocystine (TY+), and a TY medium to which selenocystine was added to 0.01 mM six hours after the start of culture (TY+∘).
In addition, the amount of selenoneine produced by the (EcEgtA+EcEgtC) transformant was higher than that of the EcEgtA transformant and the difference between the two transformants was more significant in the culture supernatants.

[1] = compared with ergothioneine; cited from earlier work

In the case of `N[C@@H](C[Se][Se]C[C@H](N)C(=O)O)C(=O)O` [selenocystine], the growth inhibition (E. coli) is reported as “caused growth inhibition”.

For `C[N+](C)(C)[C@@H](Cc1cnc([Se-])[nH]1)C(=O)O` [selenoneine], the “antioxidant activity relative to ergothioneine” value [1] is given as 1,000 times.

— patent publication US11629341B2, “Method for producing selenoneine” (KIKKOMAN CORPORATION, priority 2015, dated 2023)
